Results published in patent US20170253601A1, “Substituted Pyrrolidine Compounds” (EPIZYME, INC., priority 2014, published 2017).

Target: T1, SMYD2 (Homo sapiens, UniProt Q9NRG4)
T1 construct: Full length SMYD2 (NP 064582.2) was cloned; His6 (N, cleaved yes); FLAG (N); made in house; host or cells: Sf9 insect cells
Experiment: SMYD2 Biochemical Assay (3H-SAM, biotinylated peptide substrate, Flashplate)
Conditions: IC50 values are an average of n = 1 to n = 50; read-out: SMYD2 Biochem IC50 (μM)*
Method in brief: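 Full-length His/FLAG-tagged SMYD2 expressed in Sf9 cells with tag cleaved, 1.5 nM, pre-incubated 30 min at room temperature with compound, then 10 nM 3H-SAM and 60 nM biotinylated peptide added. Buffer 20 mM Bicine pH 7.6, 1 mM TCEP, 0.005% BSG, 0.002% Tween20, 2% DMSO. Stopped with 600 uM cold SAM; 3H-peptide captured on streptavidin Flashplate; IC50 by curve fit.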

T1 sequence (Q9NRG4 whole entry): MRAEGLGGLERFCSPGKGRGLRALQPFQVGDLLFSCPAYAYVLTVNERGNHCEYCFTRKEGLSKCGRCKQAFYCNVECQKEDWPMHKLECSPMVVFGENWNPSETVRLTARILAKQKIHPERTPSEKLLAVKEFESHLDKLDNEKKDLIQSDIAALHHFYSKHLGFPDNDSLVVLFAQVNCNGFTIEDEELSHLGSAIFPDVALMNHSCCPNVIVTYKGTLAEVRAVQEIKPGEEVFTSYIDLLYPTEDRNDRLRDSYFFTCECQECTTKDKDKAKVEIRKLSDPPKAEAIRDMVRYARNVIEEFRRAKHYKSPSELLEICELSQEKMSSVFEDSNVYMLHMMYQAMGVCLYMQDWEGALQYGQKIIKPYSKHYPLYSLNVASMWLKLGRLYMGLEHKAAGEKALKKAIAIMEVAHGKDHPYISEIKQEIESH

Going from `C[C@H]1CN(c2ccncn2)C[C@H]1NC(=O)c1cc(C2CC2)on1` (racemic) [compound 340, (±)-cis-5-cyclopropyl-N-[4-methyl-1-(pyrimidin-4-yl)pyrrolidin-3-yl]-1,2-oxazole-3-carboxamide] to `CCC(c1ccccc1)N1C[C@H](C)[C@H](NC(=O)c2cc(C3CC3)on2)C1` (relative stereo) [compound 329, cis-5-cyclopropyl-N-[4-methyl-1-(1-phenyl-propyl)pyrrolidin-3-yl]-1,2-oxazole-3-carboxamide], the IC50 falls from over 50 µM to 1.15 µM.

Going from `CC(C)N1C[C@H](C)[C@H](NC(=O)c2cc(C#N)on2)C1` (racemic) [compound 341, (±)-cis-5-cyano-N-[4-methyl-1-(propan-2-yl)pyrrolidin-3-yl]-1,2-oxazole-3-carboxamide] to `CC(C)N1C[C@H](C)[C@H](NC(=O)c2cc(C(F)(F)F)on2)C1` (racemic) [compound 348, (±)-cis-N-[4-methyl-1-(propan-2-yl)pyrrolidin-3-yl]-5-(trifluoromethyl)-1,2-oxazole-3-carboxamide], the IC50 falls from 22.8 µM to 6.68 µM (3.4-fold). The second is the more potent here.

`CC(C)N1C[C@H](C)[C@H](NC(=O)c2cc(C3CNC3)on2)C1` (racemic) [compound 342, (±)-cis-5-(azetidin-3-yl)-N-[4-methyl-1-(propan-2-yl)pyrrolidin-3-yl]-1,2-oxazole-3-carboxamide] and `CC(C)N1C[C@H](C)[C@H](NC(=O)c2cc(C3CN(C)C3)on2)C1` (racemic) [compound 343, (±)-cis-N-[4-methyl-1-(propan-2-yl)pyrrolidin-3-yl]-5-(1-methylazetidin-3-yl)-1,2-oxazole-3-carboxamide] cannot be ordered by IC50: over 50 µM for the first, over 50 µM for the second.

Compared with `CC(C)N1C[C@H](C)[C@H](NC(=O)c2cc(CC(F)F)on2)C1` (racemic) [compound 345, (±)-cis-5-(2,2-difluoro-ethyl)-N-[4-methyl-1-(propan-2-yl)pyrrolidin-3-yl]-1,2-oxazole-3-carboxamide], `CC(c1cc(C(=O)N[C@@H]2CN(C(C)C)C[C@@H]2C)no1)C(F)F` (relative stereo) [compound 344, cis-5-(1,1-difluoropropan-2-yl)-N-[4-methyl-1-(propan-2-yl)pyrrolidin-3-yl]-1,2-oxazole-3-carboxamide] is 1.7-fold higher in IC50: 5.84 µM for the first, 10.2 µM for the second.

`CC(C)N1C[C@H](C)[C@H](NC(=O)c2cc(C3(O)COC3)on2)C1` (racemic) [compound 346, (±)-cis-5-(3-hydroxyoxetan-3-yl)-N-[4-methyl-1-(propan-2-yl)pyrrolidin-3-yl]-1,2-oxazole-3-carboxamide] and `CC(N1C[C@H](C)[C@H](NC(=O)c2cc(C3CC3)on2)C1)C(F)(F)F` (stereo in doubt) [compound 285, trans-5-cyclopropyl-N-[4-methyl-1-(1,1,1-trifluoropropan-2-yl)pyrrolidin-3-yl]-1,2-oxazole-3-carboxamide] cannot be ordered by IC50: over 50 µM for the first, over 50 µM for the second.

Compared with `CCOC(=O)C(C)CN1C[C@@H](C)[C@H](NC(=O)c2cc(C3CC3)on2)C1` (relative stereo) [compound 128, trans-ethyl 3-[3-(5-cyclopropyl-1,2-oxazole-3-amido)-4-methylpyrrolidin-1-yl]-2-methylpropanoate], `CCOC(=O)C(C)CN1C[C@H](C)[C@H](NC(=O)c2cc(C3CC3)on2)C1` (relative stereo) [compound 186, cis-ethyl 3-[3-(5-cyclopropyl-1,2-oxazole-3-amido)-4-methylpyrrolidin-1-yl]-2-methylpropanoate] is lower in IC50: over 50 µM for the first, 20.8 µM for the second. The second is the more potent here.

`CC(Cc1ccc2c(c1)OCO2)CN1C[C@H](C)[C@H](NC(=O)c2cc(C3CC3)on2)C1` (relative stereo) [compound 323, cis-N-{1-[2-(2H-1,3-benzodioxol-5-ylmethyl)propyl]-4-methylpyrrolidin-3-yl}-5-cyclopropyl-1,2-oxazole-3-carboxamide] and `C[C@H]1CN(C(CO)c2ccccc2)C[C@H]1NC(=O)c1cc(C2CC2)on1` (relative stereo) [compound 330, cis-5-cyclopropyl-N-[1-(2-hydroxy-1-phenylethyl)-4-methyl-pyrrolidin-3-yl]-1,2-oxazole-3-carboxamide] are within 1.5-fold of each other in IC50: 9.31 µM for the first, 9.44 µM for the second.

Going from `CCOC(=O)C1CC1CN1C[C@H](C)[C@H](NC(=O)c2cc(C3CC3)on2)C1` (stereo in doubt) [compound 176, cis-ethyl 2-{[3-(5-cyclopropyl-1,2-oxazole-3-amido)-4-methylpyrrolidin-1-yl]methyl}cyclopropane-1-carboxylate] to `CC(C)N1C[C@@H](NC(=O)c2cc(C3CC3)on2)C[C@@H]1COCC#CC1CCCCC1` (stereo in doubt) [compound 236, (±)-trans-N-[5-{[(3-cyclo-hexylprop-2-yn-1-yl)oxy]methyl}-1-(propan-2-yl)pyrrolidin-3-yl]-5-cyclopropyl-1,2-oxazole-3-carboxamide], the IC50 rises from 5.28 µM to over 50 µM. The first is the more potent here.

`CC(C)c1cc(C(=O)N[C@H]2C[C@H](CNC(=O)c3ccccc3)N(C3CC3)C2)no1` (stereo in doubt) [compound 189, (±)-trans-N-[1-cyclopropyl-5-[(phenyl-formamido)methyl]pyrrolidin-3-yl]-5-(propan-2-yl)-1,2-oxazole-3-carboxamide] and `CC(C)c1cc(C(=O)N[C@@H]2C[C@@H](CNC(=O)c3ccccc3)N(C3CC3)C2)no1` (stereo in doubt) [compound 242, (±)-trans-N-[1-cyclo-propyl-5-[(phenyl-formamido)methyl]pyrrolidin-3-yl]-5-(propan-2-yl)-1,2-oxazole-3-carboxamide] cannot be ordered by IC50: over 50 µM for the first, over 50 µM for the second.

`CC(C)c1cc(C(=O)N[C@H]2C[C@H](CNC(=O)C3CCCCC3)N(C3CC3)C2)no1` (stereo in doubt) [compound 190, (±)-trans-N-[5-[(cyclohexyl-formamido)methyl]-1-cyclopropylpyrrolidin-3-yl]-5-(propan-2-yl)-1,2-oxazole-3-carboxamide] and `CC(C)c1cc(C(=O)N[C@@H]2C[C@@H](CNC(=O)C3CCCCC3)N(C3CC3)C2)no1` (stereo in doubt) [compound 243, (±)-trans-N-[5-[(cyclo-hexylformamido)methyl]-1-cyclopropylpyrrolidin-3-yl]-5-(propan-2-yl)-1,2-oxazole-3-carboxamide] cannot be ordered by IC50: over 50 µM for the first, over 50 µM for the second.

First: CC(C)N1C[C@H](NC(=O)c2cc(C3CC3)on2)C[C@@H]1COCC#Cc1ccccc1 (stereo in doubt) [compound 238, (±)-cis-5-cyclopropyl-N-[5-{[(3-phenylprop-2-yn-1-yl)oxy]methyl}-1-(propan-2-yl)pyrrolidin-3-yl]-1,2-oxazole-3-carboxamide]
Second: CC(C)N1C[C@@H](NC(=O)c2cc(C3CC3)on2)C[C@H]1COCC#Cc1ccccc1 (stereo in doubt) [compound 240, (±)-cis-5-cyclopropyl-N-[(5-{[(3-phenylprop-2-yn-1-yl)oxy]methyl}-1-(propan-2-yl)pyrrolidin-3-yl]-1,2-oxazole-3-carboxamide]
The IC50 of the first is lower: 39.7 µM for the first, over 50 µM for the second.

Work on `CC(C)N1C[C@H](NC(=O)c2cc(C3CC3)on2)C[C@H]1COCC#CC1CCCCC1` (stereo in doubt) [compound 244, (±)-trans-N-[5-{[(3-cyclo-hexylprop-2-yn-1-yl)oxy]methyl}-1-(propan-2-yl)pyrrolidin-3-yl]-5-cyclopropyl-1,2-oxazole-3-carboxamide] yielded an IC50 of over 50 µM.
